Patent publication US8916555B2, “3,5-diaminopyrazole kinase inhibitors” (Axikin Pharmaceuticals, Inc., priority 2012, dated 2014)

Legend:
[1] = target: T1, kinase domain protein of RC kinase (Homo sapiens, UniProt Q56UN5); test: Enzymatic assay for kinase inhibitory activity (Crebtide substrate, LANCE readout), kinase domain protein; assay type: biochemical; settings: test compound 1 μM, ATP 1 μM, Crebtide 50 nM
T1 sequence (Q56UN5 1061-1324 limits assumed): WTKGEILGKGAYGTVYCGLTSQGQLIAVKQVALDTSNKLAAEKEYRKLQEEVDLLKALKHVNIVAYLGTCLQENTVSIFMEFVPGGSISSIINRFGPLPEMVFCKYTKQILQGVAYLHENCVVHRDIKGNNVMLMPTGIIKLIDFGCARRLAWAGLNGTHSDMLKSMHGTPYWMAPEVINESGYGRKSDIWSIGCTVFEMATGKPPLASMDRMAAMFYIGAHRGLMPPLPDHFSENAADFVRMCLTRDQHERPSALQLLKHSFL
Method: Solutions of a test compound, Crebtide (a substrate), a kinase, and ATP were prepared using 1×MAPK Buffer (50 mM HEPES, 1 mM EGTA, […], 10 mM MgCl2, 2 mM DTT, and 0.01% Tween 20).
To each well, the test compound (1 μL) was first added (in duplicate) to reach a final concentration of 1 μM or 1×IC50 of the compound. The kinase (5 μL) was then added to each well to reach a final concentration of […] for the kinase domain or […] for the full-length domain. Each plate included a positive and negative controls in duplicate wells. Crebtide (2.5 μL) was then added to each well in duplicate to reach a final concentration of 50 nM. If the full-length kinase was used, the plates were incubated for 45 min at room temperature before proceeding further. ATP (2.5 μL) was added to each well to reach a final concentration of 1 μM for the kinase domain and 3 μM for the full-length.
After the addition of ATP, the plates were incubated for 45 min at room temperature. During the incubation, an EDTA solution (40 mM) and anti-Crebtide ([…]) were prepared. Additionally, a detection buffer stock solution was diluted ten fold before use.
After the incubation, the anti-Crebtide (5 μL) and EDTA (5 μL) were added to each well to reach their final concentrations of […] and 10 mM, respectively. The plates were allowed to develop at room temperature for 45 min. The plates were then read at 665 nm and 615 nm using Perkin Elmer Lance machine.
The biological results of inhibition of the kinase domain protein of RC kinase are summarized in Tables 2 and 3, wherein A represents at least 50% inhibition of the RC kinase activity at 1 μM; B represents no greater than 50% but at least 20% inhibition of the RC kinase activity at 1 μM; C represents no greater than 20% but at least 5% inhibition of the RC kinase activity at 1 μM; and D represents no greater than 5% inhibition of the RC kinase activity at 1 μM.

Row | SMILES | melting point | inhibition at 1 µM [1]
1 | NC(=O)c1c(Nc2ccc(NC(=O)c3ccc(F)cc3)cc2)n[nH]c1NCc1ccc(O)cc1 [Compound D132, 3-((4-(4-fluorobenzamido)phenyl)amino)-5-((4-hydroxybenzyl)amino)-1H-pyrazole-4-carboxamide] | 227 to 231 °C | ≥ 50%
2 | NC(=O)c1c(Nc2ccc(NC(=O)c3sc4cc(F)ccc4c3Cl)cc2)n[nH]c1NCc1ccc(O)cc1 [Compound D141, 3-((4-(3-chloro-6-fluorobenzo[b]thiophene-2-carboxamido)phenyl)amino)-5-((4-hydroxybenzyl)amino)-1H-pyrazole-4-carboxamide] | 228 to 232 °C | 20 to 50%
3 | NC(=O)c1c(Nc2cccnc2)n[nH]c1NCc1ccc(O)cc1 [Compound D150, 5-((4-hydroxybenzyl)amino)-3-(pyridin-3-ylamino)-1H-pyrazole-4-carboxamide] | 229 to 233 °C | ≥ 50%
4 | COc1ccc(CNc2[nH]nc(Nc3cccc(Cl)c3)c2C#N)cc1F [Compound C27] | 97 to 105 °C | 5 to 20%
5 | NC(=O)c1c(Nc2ccc(-c3ccccn3)cc2)n[nH]c1NCc1ccc(O)cc1 [Compound D109] | 217 to 221 °C | ≥ 50%
6 | CC1CCN(C2CCN(c3ccc(Nc4n[nH]c(NCc5ccc(O)cc5)c4C(N)=O)cc3)CC2)CC1 [Compound D102, 5-((4-hydroxybenzyl)amino)-3-((4-(4-methyl-[1,4′-bipiperidin]-1′-yl)phenyl)amino)-1H-pyrazole-4-carboxamide] | 220 to 224 °C | ≥ 50%
7 | CS(=O)(=O)c1ccc(CNc2n[nH]c(NCc3ccc(O)cc3)c2C(N)=O)cc1 [Compound D113, 5-((4-hydroxybenzyl)amino)-3-((4-(methylsulfonyl)benzyl)amino)-1H-pyrazole-4-carboxamide] | 263 to 267 °C | 5 to 20%
8 | CN(C)c1ccc(Nc2n[nH]c(NCc3ccc(O)cc3)c2C(N)=O)cc1 [Compound D126, 3-((4-(dimethylamino)phenyl)amino)-5-((4-hydroxybenzyl)amino)-1H-pyrazole-4-carboxamide] | 184 to 188 °C | ≥ 50%
9 | N#Cc1c(Nc2cccc(Cl)c2)n[nH]c1NCc1ccc(Cl)cc1Cl [Compound C19] | 171 to 174 °C | 5 to 20%
10 | NC(=O)c1c(NCc2c(F)cccc2Cl)n[nH]c1NCc1ccc(O)cc1 [Compound D115] | 215 to 218 °C | 5 to 20%
11 | COc1ccc(CNc2n[nH]c(NCc3ccc(O)cc3)c2C(N)=O)cn1 [Compound D112] | 178 to 180 °C | 20 to 50%
12 | NC(=O)c1c(Nc2cccc(Cl)c2)n[nH]c1NCc1cccs1 [Compound D95, 3-((3-chlorophenyl)amino)-5-((thiophen-2-ylmethyl)amino)-1H-pyrazole-4-carboxamide] | 222 to 227 °C | ≤ 5%
13 | N#Cc1c(Nc2cccc(Cl)c2)n[nH]c1NCc1ccc(O)cc1 [Compound C31, 3-((3-chlorophenyl)amino)-5-((4-hydroxybenzyl)amino)-1H-pyrazole-4-carbonitrile] | 205 to 208 °C | ≤ 5%
14 | COc1ccc(Nc2n[nH]c(NCc3ccc(O)cc3)c2C(N)=O)cc1 [Compound D162, 5-((4-hydroxybenzyl)amino)-3-((4-methoxyphenyl)amino)-1H-pyrazole-4-carboxamide] | 176 to 180 °C | ≥ 50%
15 | NC(=O)c1c(Nc2ccc(Cl)c(Cl)c2)n[nH]c1NCc1ccc(O)cc1 [Compound D158, 3-((3,4-dichlorophenyl)amino)-5-((4-hydroxybenzyl)amino)-1H-pyrazole-4-carboxamide] | 203 to 209 °C | ≥ 50%
